ChEMBL document CHEMBL1201862, “PubChem BioAssay data set” (2004)
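Cells were grown in 96-well plates and exposed to each compound for 48 hours at five concentrations; endpoints were interpolated linearly between bracketing concentrations, or set to the highest concentration if not reached. The concentration for 50% growth inhibition is given as GI50.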 Active and inactive are the calls of the source. Rule as the data show it: active = GI50 up to about 1.1 µM and inactive = higher.

Tests used:
Experiment in all cases: inhibition of tumour cell growth, NCI panel, 48 h
[1] = system: SNB-19
[2] = system: SK-MEL-5
[3] = system: MDA-N
[4] = system: NCI/ADR-RES
[5] = system: ACHN
[6] = system: SN12C
[7] = system: SK-OV-3
[8] = system: M14
[9] = system: HL-60
[10] = system: DU-145
[11] = system: HOP-62
[12] = system: OVCAR-3
[13] = system: OVCAR-4
[14] = system: SK-MEL-2
[15] = system: NCI-H460
[16] = system: PC-3
[17] = system: 786-0

Structure (SMILES)	GI50 [1]	GI50 [2]	GI50 [3]	GI50 [4]	GI50 [5]	GI50 [6]	GI50 [7]	GI50 [8]	GI50 [9]	GI50 [10]	GI50 [11]	GI50 [12]	GI50 [13]	GI50 [14]	GI50 [15]	GI50 [16]	GI50 [17]
CN(C)c1ccc(C(=O)NCCCCCCC(=O)NO)cc1	2 µM (inactive)	0.289 µM (active)	0.233 µM (active)	0.14 µM (active)	0.67 µM (active)	0.378 µM (active)	0.299 µM (active)	0.565 µM (active)	0.397 µM (active)	0.335 µM (active)	2.3 µM (inactive)	0.519 µM (active)	1.64 µM (inactive)	0.19 µM (active)	0.417 µM (active)	0.53 µM (active)	0.973 µM (active)
C=C(C)C(=O)N1c2ccc(OC)cc2CC1C(=O)OCC (stereo not given)	> 100 µM (inactive)	> 100 µM (inactive)	> 100 µM (inactive)	> 100 µM (inactive)	> 100 µM (inactive)	> 100 µM (inactive)	> 100 µM (inactive)	> 100 µM (inactive)	> 10 µM (inactive)	> 100 µM (inactive)	> 100 µM (inactive)	> 100 µM (inactive)	> 100 µM (inactive)	> 100 µM (inactive)	> 100 µM (inactive)	> 100 µM (inactive)	> 100 µM (inactive)
COc1ccc(N2C(=O)CS(=O)(=O)C2c2cccc(Oc3ccccc3)c2)cc1 (stereo not given)	5.53 µM (inactive)	4.57 µM (inactive)	1.22 µM (inactive)	2.89 µM (inactive)	4.92 µM (inactive)	4.65 µM (inactive)	4.38 µM (inactive)	3.7 µM (inactive)	3.32 µM (inactive)	6.65 µM (inactive)	7.53 µM (inactive)	4.03 µM (inactive)	5.79 µM (inactive)	3.56 µM (inactive)	2.61 µM (inactive)	3.65 µM (inactive)	4.7 µM (inactive)
CC(=O)N[C@@H](Cc1ccc(O)cn1)C(=O)NCc1ccc(Cl)cc1	> 100 µM (inactive)	> 100 µM (inactive)	> 100 µM (inactive)	> 100 µM (inactive)	> 100 µM (inactive)	> 100 µM (inactive)	> 100 µM (inactive)	> 100 µM (inactive)	> 100 µM (inactive)	> 100 µM (inactive)	> 100 µM (inactive)	> 100 µM (inactive)	> 100 µM (inactive)	> 100 µM (inactive)	> 100 µM (inactive)	> 100 µM (inactive)	> 100 µM (inactive)
N#CCCN(CCCN(C(=O)Nc1ccc(NC(=O)N(CCCN(CCC#N)C(N)=O)c2ccccc2)cc1)c1ccccc1)C(N)=O	> 100 µM (inactive)	> 100 µM (inactive)	> 100 µM (inactive)	> 100 µM (inactive)	> 100 µM (inactive)	–	> 100 µM (inactive)	> 100 µM (inactive)	> 100 µM (inactive)	> 100 µM (inactive)	> 100 µM (inactive)	> 100 µM (inactive)	> 100 µM (inactive)	> 100 µM (inactive)	> 100 µM (inactive)	> 100 µM (inactive)	> 100 µM (inactive)
CCSCC(N)C(=O)O (stereo not given)	> 100 µM (inactive)	> 100 µM (inactive)	> 100 µM (inactive)	> 100 µM (inactive)	> 100 µM (inactive)	> 100 µM (inactive)	> 100 µM (inactive)	> 100 µM (inactive)	> 100 µM (inactive)	> 100 µM (inactive)	> 100 µM (inactive)	> 100 µM (inactive)	> 100 µM (inactive)	> 100 µM (inactive)	> 100 µM (inactive)	> 100 µM (inactive)	> 100 µM (inactive)
CO[C@H](c1ccccc1)[C@H](O)[C@](O)(c1ccccc1)P(=O)(OC)OC	> 100 µM (inactive)	> 100 µM (inactive)	> 100 µM (inactive)	> 100 µM (inactive)	> 100 µM (inactive)	> 100 µM (inactive)	> 100 µM (inactive)	> 100 µM (inactive)	> 100 µM (inactive)	> 100 µM (inactive)	–	> 100 µM (inactive)	> 100 µM (inactive)	> 100 µM (inactive)	> 100 µM (inactive)	> 100 µM (inactive)	> 100 µM (inactive)
Cc1cccc2c1C(=O)[C@@](C)([C@]1(C)Nc3cccc(C)c3C1=O)N2	> 100 µM (inactive)	96.6 µM (inactive)	98.4 µM (inactive)	> 100 µM (inactive)	> 100 µM (inactive)	> 100 µM (inactive)	> 100 µM (inactive)	> 100 µM (inactive)	0.499 µM (active)	> 100 µM (inactive)	> 100 µM (inactive)	> 100 µM (inactive)	> 100 µM (inactive)	> 100 µM (inactive)	> 100 µM (inactive)	38.7 µM (inactive)	> 100 µM (inactive)
CCC/C(Cl)=N\OC(=O)Nc1cccc(C(F)(F)F)c1	> 100 µM (inactive)	15.5 µM (inactive)	17.6 µM (inactive)	20.6 µM (inactive)	16.3 µM (inactive)	15.1 µM (inactive)	13.6 µM (inactive)	17.7 µM (inactive)	1.88 µM (inactive)	13.2 µM (inactive)	> 100 µM (inactive)	22.4 µM (inactive)	22.6 µM (inactive)	16.7 µM (inactive)	19.4 µM (inactive)	17.6 µM (inactive)	16 µM (inactive)
CCCCn1c(CSc2ccc(Cl)cc2)c(C(=O)OCC)c2cc(OC)c(Br)cc21	> 100 µM (inactive)	> 100 µM (inactive)	> 100 µM (inactive)	> 100 µM (inactive)	> 100 µM (inactive)	> 100 µM (inactive)	> 100 µM (inactive)	> 100 µM (inactive)	> 100 µM (inactive)	> 100 µM (inactive)	> 100 µM (inactive)	> 100 µM (inactive)	> 100 µM (inactive)	> 100 µM (inactive)	> 100 µM (inactive)	> 100 µM (inactive)	> 100 µM (inactive)
Cc1ccc2c(n1)C(=O)C=CC2=O	18 µM (inactive)	14.9 µM (inactive)	7.4 µM (inactive)	18.1 µM (inactive)	2.89 µM (inactive)	13.4 µM (inactive)	18.3 µM (inactive)	15 µM (inactive)	0.486 µM (active)	14.8 µM (inactive)	26.3 µM (inactive)	2.71 µM (inactive)	6.87 µM (inactive)	16.7 µM (inactive)	17.4 µM (inactive)	16.8 µM (inactive)	5.96 µM (inactive)
Cc1ccc(S(=O)(=O)/N=C2/N(C)CCCS2(=O)=O)cc1	> 100 µM (inactive)	> 100 µM (inactive)	> 100 µM (inactive)	> 100 µM (inactive)	> 100 µM (inactive)	> 100 µM (inactive)	> 100 µM (inactive)	> 100 µM (inactive)	> 100 µM (inactive)	> 100 µM (inactive)	> 100 µM (inactive)	> 100 µM (inactive)	> 100 µM (inactive)	> 100 µM (inactive)	> 100 µM (inactive)	> 100 µM (inactive)	> 100 µM (inactive)
COc1cccc(/C=C2\N=C(c3ccccc3)OC2=O)c1	35.1 µM (inactive)	50.5 µM (inactive)	47.2 µM (inactive)	25.8 µM (inactive)	> 100 µM (inactive)	65.2 µM (inactive)	> 100 µM (inactive)	81.3 µM (inactive)	10.7 µM (inactive)	91.2 µM (inactive)	61.1 µM (inactive)	63.1 µM (inactive)	53.6 µM (inactive)	56.1 µM (inactive)	50.7 µM (inactive)	> 100 µM (inactive)	74.5 µM (inactive)
CCN(CC)c1c(-c2c(OC(C)C)c(=O)c2=O)c(=O)n2ccsc2c1OC(C)=O	> 100 µM (inactive)	> 100 µM (inactive)	> 100 µM (inactive)	> 100 µM (inactive)	> 100 µM (inactive)	> 100 µM (inactive)	> 100 µM (inactive)	> 100 µM (inactive)	85.3 µM (inactive)	> 100 µM (inactive)	> 100 µM (inactive)	> 100 µM (inactive)	> 100 µM (inactive)	> 100 µM (inactive)	> 100 µM (inactive)	> 100 µM (inactive)	> 100 µM (inactive)
N=C(N)C(/N=N\c1ccccc1)C(N)=O (stereo not given)	> 100 µM (inactive)	> 100 µM (inactive)	> 100 µM (inactive)	> 100 µM (inactive)	> 100 µM (inactive)	> 100 µM (inactive)	> 100 µM (inactive)	> 100 µM (inactive)	> 100 µM (inactive)	> 100 µM (inactive)	> 100 µM (inactive)	> 100 µM (inactive)	53.7 µM (inactive)	66.1 µM (inactive)	> 100 µM (inactive)	> 100 µM (inactive)	> 100 µM (inactive)
OCCCCCNc1nc(O)c2[nH]cnc2n1	> 100 µM (inactive)	> 100 µM (inactive)	> 100 µM (inactive)	> 100 µM (inactive)	> 100 µM (inactive)	> 100 µM (inactive)	> 10 µM (inactive)	> 100 µM (inactive)	> 100 µM (inactive)	> 100 µM (inactive)	> 100 µM (inactive)	> 100 µM (inactive)	> 100 µM (inactive)	> 100 µM (inactive)	> 100 µM (inactive)	> 100 µM (inactive)	> 100 µM (inactive)
OC(c1ccc(Cl)cc1)(c1ccc(Cl)cc1)c1cncnc1	22.5 µM (inactive)	13.6 µM (inactive)	19.2 µM (inactive)	26.4 µM (inactive)	–	26.7 µM (inactive)	> 10 µM (inactive)	16.7 µM (inactive)	> 10 µM (inactive)	24.6 µM (inactive)	18.6 µM (inactive)	17.1 µM (inactive)	14.7 µM (inactive)	16.6 µM (inactive)	18.2 µM (inactive)	12.9 µM (inactive)	–
